Measurements reported in paper PMC11099041, “Tissue distribution and retention drives efficacy of rapidly clearing VHL-based PROTACs” (Communications Medicine, 2024).

Key:
[1] = Protein binding by equilibrium dialysis (plasma, tissue homogenates, DPBS); assay type: in vitro ADME, rat
Procedure: Control plasma was purchased from BioIVT, Hicksville, New York. Pooled plasma was obtained from at least three rats with K2EDTA as the anticoagulant. Control plasma was used to test the suitability of the system and for positive control analysis. Dulbecco’s phosphate-buffered saline (DPBS) (Millipore Sigma, St Louis, Missouri) was used to test the suitability of the system and as the receiver side of the dialysis device. […] The stock solution was added to the matrix (plasma or DPBS) and swirled to mix. The fortified matrix was then incubated at 37 °C for 15 min. Triplicate aliquots of the fortified matrix were analyzed by LSC.
The high throughput dialysis apparatus, model HTD96b, was used (HTDialysis LLC, Gales Ferry, Connecticut). Prior to assembly, dialysis membrane strips (molecular weight cutoff of 6–8 kDa) were hydrated, and the Teflon bars were assembled according to manufacturer’s instructions, with dialysis membrane strips laid between bars creating two compartments per well. The assembled unit was locked in place in the steel base plate. A 150 µL aliquot of each fortified matrix (tissue homogenates, plasma, or DPBS) and DPBS were added to the donor and receiver side of the HTD wells in a Teflon plate, respectively, and the plate was sealed. Samples were incubated at 37 °C and rotated at 300 rpm for 7 hours. After incubation, the seal was removed, and tissue homogenates, plasma, or DPBS and dialysate from each device insert were analyzed by LSC. All protein binding determinations were performed in triplicate.
Dialysis was performed accordingly. The radioactivity concentration of the test article in the donor and receiver samples was determined by LSC (count time 60 min) for the calculation of protein binding. […] After the designated time, aliquots of the individual donor and receiver samples were removed and analyzed by LSC. The remaining sample volume was stored at −20 °C.
Dialysis was performed accordingly.
Protein binding by equilibrium dialysis:1 PercentDrugBound=(Cm-Cd)/Cm×100 2 PercentDrugUnbound=100-PercentBound where: Cd, concentration of test article in dialysate at equilibrium; Cm, Concentration of test article in matrix at equilibrium.
Recovery from equilibrium dialysis:3 Recovery(%)=(Cm×Vm)+(Cd×Vd)/(Co×Vo)×100 where: Cm, Concentration of test article in matrix at equilibrium; Cd, Concentration of test article in dialysate at equilibrium; Co, Original concentration of test article in matrix prior to loading the dialysis device; Vm, Nominal volume of the matrix at equilibrium; Vd, Nominal volume of the dialysate at equilibrium; Vo, Nominal volume of the original matrix added to the dialysis device.

[2] = Metabolite profiling in rat bile, urine and feces (radio-HPLC, LC-HRMS); assay type: in vivo; conditions: in vivo, iv, 4 mg/kg
Procedure: Tissue homogenate samples at 24 hours were extracted as plasma samples. […] The pooled urine samples containing 10% MeOH were analyzed by liquid chromatography-high resolution mass spectrometry (LC-HRMS).
The pooled bile sample containing 10% MeOH was analyzed by LC-HRMS.
Feces samples obtained from BDC and intact rats were pooled separately across time intervals for each animal (5% w/v) and further pooled across animals for each group to generate a 0–68 hour pooled sample. Approximately 1–2 g of each pooled feces sample was extracted as the same protocol used for plasma samples. […] The reconstituted samples were analyzed by LC-HRMS.
The reconstituted samples were analyzed by LC-HRMS, with eluent fractions collected at 10-second intervals into 96-well plates containing solid scintillant. Radioactivity in each well was determined using TopCount analysis, and radiochemical profiles were generated based on radioactivity counts. Structural elucidation was performed based on mass spectral interpretation to identify metabolites.
For metabolite profiling and identification, LC-MS analysis used a Shimadzu/Nexera LC-30 AD liquid chromatographic system and a ThermoFisher Scientific Q Exactive with a positive/negative heated electrospray interface. The column was a Waters XSelect HSS T3 4.6 mm × 250 mm, 3.5 µm and maintained at 40 °C. The mobile phases were (A) 20 mM ammonium acetate in water and (B) acetonitrile. […] The flow was 1 mL/min and split 20% to mass analysis and 80% collected for radioactivity counting. Mass spectrometry data was acquired with full scans at a resolution of 70,000 for a m/z range of 300 to 1500, and MS/MS scans were acquired at a resolution of 17,500. The mass spectrometer was operated with a normalized collision energy of 30 (ESI+), S-Lens RF level of 60, source voltage of +3.5 kV, Capillary temperature of 320 °C, and Probe heater temperature of 300 °C.

[3] = test system: primary human hepatocytes; assay: Oil-spin hepatocyte uptake assay; assay type: in vitro ADME
Procedure: Uptake studies were conducted using the oil-spin method described previously. Cryopreserved primary human hepatocytes (Lot KCN, BioIVT, Hicksville, NY) were thawed at 37 °C and re-suspended in InVitroGro-HT medium (BioIVT, Hicksville, NY). The suspension was centrifuged at 50 × g for 5 minutes at 4 °C, and the resulting pellet was re-suspended to 2 million cells/mL in ice-cold KHB buffer with 10% human serum (BioIVT, Hicksville, NY). The cell suspension was equilibrated to 37 °C in a water bath for 10 minutes with or without inhibitors. At the start of the uptake experiment, 37 °C KHB buffer containing test compounds with or without inhibitors was added to the hepatocyte suspension. At various time points, the uptake was terminated by removing portions of the suspension to microcentrifuge tubes containing a lower […] ammonium acetate layer and an upper mineral/silicone oil layer. For the 4 °C experiment, ice-cold buffer containing test compounds with or without inhibitors was added to ice-cold hepatocyte suspension, and the mixture was incubated on ice for the duration of the experiment. The microcentrifuge tubes were immediately centrifuged at 16,000 × g for 12 seconds. The tubes were then frozen on dry ice. The frozen hepatocyte pellets were cut from the tubes and transferred to −80 °C freezer until LC-MS/MS analysis. […]

[4] = In vitro metabolism in human hepatocytes; conditions: incubations with hepatocytes and microsomes of rats and humans
Procedure: Hepatocyte cell count was ~1.1–1.8 × 10^6 cells/mL. After 3 h, samples were quenched with 3 volumes of acetonitrile, vortex mixed, and centrifuged. The supernatant (5 µL) was analyzed by LC-MS using a Kinetex EVO C18 column (1.7 μm, 2.1 × 150 mm) at 40 °C with a flow rate of 0.4 mL/min. Mobile phase A was 20 mM ammonium acetate in water, and mobile phase B was acetonitrile. The column was initially held at 5% B for 2 min, increased to 75% B over 33 minutes, and then increased to 95% B over 3 min, where it was maintained for 3 minutes before returning to 5% B over 0.5 min for re-equilibration. Mass spectrometry data was acquired using positive ion mode and data-dependent MS^2 acquisition.

[5] = Bioavailability after PO administration (peer review reply); assay type: in vivo; conditions: authors' reply in peer review file

Question: For `Cc1ncsc1-c1ccc(C(C)NC(=O)C2CC(O)CN2C(=O)C(c2cc(N3CCC(CN4CCC(OC5CC(Oc6cc(N7C8CCC7CN(c7cc(-[14c]9[14cH][14cH][14cH][14cH][14c]9O)nnc7N)C8)ccn6)C5)CC4)CC3)no2)C(C)C)cc1` (stereo not shown) [14C-A947], which “Percent Bound” value [1] is on record?
Answer: 99.3%

Question: What about the “Percentage bound (mean), Control Plasma” value [1] of the same compound?
Answer: 99.2%

Question: What about the “Percentage bound (mean), Kidney” value [1] of the same compound?
Answer: 100%

Question: What about the “Percentage bound (mean), Liver” value [1] of the same compound?
Answer: 100%

Question: And the “Percentage bound (mean), Lungs” value [1]?
Answer: 99.5%

Question: And the “Percentage bound (mean), Pancreas” value [1]?
Answer: 100%

Question: What about the “Percentage bound (mean), Plasma (4 hour)” value [1] of the same compound?
Answer: 96.8%

Question: What about the “Percentage bound (mean), Plasma (24 hour)” value [1] of the same compound?
Answer: 98.2%

Question: And the “Percentage bound (mean), Plasma (48 hour)” value [1]?
Answer: 97.5%

Question: What about the “Percentage bound (mean), Prostate Gland” value [1] of the same compound?
Answer: 99.8%

Question: What about the “Percentage bound (mean), Spleen” value [1] of the same compound?
Answer: 99.1%

Question: And the “Percentage bound (mean), Thymus” value [1]?
Answer: 100%

Question: What about the Fu ([1]; rat, plasma) of the same compound?
Answer: 0.007

Question: What about the “Percentage unbound (mean), Control Plasma” value ([1]; rat, plasma) of the same compound?
Answer: 0.795%

Question: And the “Percentage unbound (mean), Plasma (4 hour)” value ([1]; rat, plasma)?
Answer: 0.548%

Question: And the “Percentage unbound (mean), Plasma (24 hour)” value ([1]; rat, plasma)?
Answer: 0.595%

Question: And the “Percentage unbound (mean), Plasma (48 hour)” value ([1]; rat, plasma)?
Answer: 0.863%

Question: And the “Percentage unbound (mean), Liver” value ([1]; rat, tissue homogenate)?
Answer: 0.0298%

Question: What about the “Percentage unbound (mean), Lungs” value ([1]; rat, tissue homogenate) of the same compound?
Answer: 0.09%

Question: And the “Percentage unbound (mean), Pancreas” value ([1]; rat, tissue homogenate)?
Answer: 0.0125%

Question: And the “Percentage unbound (mean), Thymus” value ([1]; rat, tissue homogenate)?
Answer: 0.0426%

Question: What about the “%Rad in bile” value [2] of the same compound?
Answer: 23.11%

Question: What about the “%rad in feces” value [2] of the same compound?
Answer: 18.95%

Question: What about the “%rad in urine” value [2] of the same compound?
Answer: 20.6%

Question: With `Cc1ncsc1-c1ccc(C(C)NC(=O)C2CC(O)CN2C(=O)C(c2cc(N3CCC(CN4CCC(OC5CC(Oc6cc(N7C8CCC7CN(c7cc(-c9ccccc9O)nnc7N)C8)ccn6)C5)CC4)CC3)no2)C(C)C)cc1` (stereo not shown) [A947] as the compound, how does the “Uptake by primary human hepatocytes at 4 °C” value ([3]; 4 °C) read?
Answer: abolished

Question: And the “Temperature-dependent uptake with rifamycin SV” value ([3]; co-administration of 1 mM rifamycin SV)?
Answer: largely inhibited

Question: What about the Compound metabolized [4] of the same compound?
Answer: < 10%

Question: What about the “Bioavailability after PO administration” value [5] of the same compound?
Answer: did not find bioavailability
